In patent US20110294992A1, “METAL RESPONSIVE MRI-AGENTS” (The Regents of the University of California, priority 2010, published 2011):
Marks after values point to notes of the source that are not given here.

What was measured:
[1] = T1-weighted phantom magnetic resonance imaging at 1.5 T; conditions: 100 μM sensor with Cu^+ at 0, 10, 25, 50, 75, and 100 μM
Experimental: FIG. 10. A) T1-weighted phantom images of 100 μM CG2-6 in 20 mM HEPES pH 7 with and without 1 equiv Cu^n+. B) Phantom images of 100 μM CG2-6 with 0, 10, 25, 50, 75, and 100 μM [Cu(NCCH3)4]PF6. Images were acquired at 25° C. at 1.5 T (˜64 MHz proton Larmor frequency).
With spectroscopic data showing the turn-on relaxivity responses, binding properties, metal ion selectivities, and copper-induced changes in q values for this new series of CG contrast agents in hand, we next sought to test the ability of these sensors to detect changes in aqueous Cu^+ and/or Cu^2+ levels using MRI. […] In this context, chelatable copper pools have been identified in the mitochondrial matrix^22 and in the Golgi apparatus.^23 Moreover, the cerebrospinal fluid (CSF) contains micromolar levels of copper ions, most of which is not bound to ceruloplasmin due to the low concentrations of this protein in the CSF,^24,25 which may result in facile exchange between different copper binding ligands.^26

[2] = Nuclear magnetic relaxation dispersion (NMRD) profiles, Solomon-Bloembergen-Morgan fit; format: physicochemical; conditions: copper free
Experimental: FIG. 9. ^1H Nuclear magnetic relaxation dispersion profiles of CG3 and CG3+Cu^+ acquired at 25° C. The solid lines represent the best fit profiles.
As a secondary, independent set of experiments to further probe the mechanisms of copper ion sensing by the CG contrast agents, we also performed nuclear magnetic relaxation dispersion (NMRD) measurements of these sensors in the absence and in the presence of copper ions using a field cycling relaxometer (FIG. 9). The profiles obtained were analyzed following Solomon-Bloembergen-Morgan theory^36-38 for the inner-sphere relaxivity and the Freed model^115 for the outer-sphere relaxivity, fixing the diffusion coefficient (D) at […], the distance between Gd^3+ and the inner sphere water protons (r) at 3.1 Å, and the inner sphere exchange lifetime (τM) at 160 ns, the reported value for the parent complex Gd^3+-DO3A. Profiles were obtained for all compounds in the copper-free state. Profiles in the presence of Cu^n+ were obtained for CG2-4 (Cu^+) and CG6 (Cu^2+).
In fact, the measured outer-sphere relaxivities were so low that, in order to obtain a reasonable fit, the distance of closest approach of outer-sphere water protons (a) was allowed to vary. The distances obtained for the CG complexes (4.2-4.8 Å) were markedly longer than what is observed for typical Gd^3+ contrast agents with greater water access (3.8-4 Å). These values correlate with the copper-free relaxivities of CG2-6; longer a values give lower relaxivities and shorter a values give higher relaxivities. For Cu^+-sensing agents CG2-4, the estimated change in q of 2 as determined by DIS measurements was also observed in the fitted NMRD data. In fact, any attempt to fit the observed NMRD profiles with q=1 led to very poor agreement between experimental and calculated values. The change in q of 1 for CG6 upon addition of Cu^2+ as determined by NMRD is consistent with the lower turn-on response observed with this complex compared to CG2-4. The reduced q modulation for CG6 relative to CG2-4 could indicate that the carboxylic acid moiety used for Cu^2+ binding also interacts with the Gd^3+ center in the Cu^2+-bound state. The fitted rotational correlation times (τR) for copper-bound CG complexes all fall within the range expected for Gd^3+ complexes with molecular weights of 700-800 D. τR values for copper-free CG2-6 were fixed to values close to their copper-bound analogues as fits of NMRD data for q=0 complexes are not sensitive to small changes in τR. The values of Δ^2 (average quadratic transient zero field splitting), τv (electronic correlation time), and τs0 (electronic relaxation time at zero field), which govern the electronic relaxation time, are relatively similar to each other. These NMRD values are closer to those of Gd^3+-DTPA than Gd^3+-DOTA, reflecting the asymmetry of CG2-6.^64

[3] = Kinetic stability to metal ion exchange monitored by LC/MS; format: physicochemical; conditions: 1 equiv of Cu^2+

For `CCSCCN(CCSCC)Cc1cccc(CN2CCN(CC(=O)[O-])CCN(CC(=O)[O-])CCN(CC(=O)[O-])CC2)n1.[Gd+3]` [CG2], the “visualization of copper level differences in phantom images” value [1] was “can readily visualize differences in copper levels in a biologically relevant μM range”, the “τs0 (electronic relaxation time at zero field)” value [2] was 75.6 ps and the “r1p 20 MHz 25° C.” value ([2]; 0.5 mM, 20 mM HEPES pH 7) was 1.6 mM⁻¹ s⁻¹. The “a (distance of closest approach of outer-sphere water protons)” value ([2]; best-fit value) was 4.7 ± 0.11 Å, the “Δ^2 (average quadratic transient zero field splitting)” value ([2]; best-fit value) was 5.8 ± 1.1 10^19 s^−2 and the “τv (electronic correlation time)” value ([2]; best-fit value) was 19 ± 2.4 ps. The q ([2]; fixed in the fitting procedure) was 0^c, the “τR (rotational correlation time)” value ([2]; not experimentally determined, assumed equal to corresponding q ≠ 0 complex (CG5: average of the other complexes)) was 110^d ps and the “metal ion exchange (kinetic stability)” value ([3]; 37° C., after 4 hours) was “No metal ion exchange was observed”. The “metal ion exchange (kinetic stability)” value ([3]; room temperature, after 7 days) was “No metal ion exchange was observed”.
